Assay: xn = mol fraction of the nth substance listed
Settings: Liquid, Vibrating tube method

Cc1ccccc1 [toluene] + CCCO
mass density [kg/m3]
Settings	x2 = 0	x2 = 0.125	x2 = 0.25	x2 = 0.375	x2 = 0.5	x2 = 0.625	x2 = 0.75	x2 = 0.875
323.15 K, 35000 kPa	866	859.3	853.3	847.1	840.6	833.4	825.6	816.4
323.15 K, 40000 kPa	869.4	862.8	856.5	850.3	843.9	836.7	829	819.8
323.15 K, 45000 kPa	872.5	865.9	859.8	853.6	847.1	840	832.2	822.9
323.15 K, 50000 kPa	875.7	869.2	863	856.8	850.3	843.1	835.3	826
323.15 K, 55000 kPa	878.7	872.2	866	859.8	853.3	846.1	838.3	829
323.15 K, 60000 kPa	881.7	875.1	869	862.7	856.2	848.9	841.1	831.9
323.15 K, 65000 kPa	884.6	878.1	871.9	865.6	859.1	851.8	844	834.6
333.15 K, 100 kPa	828.8	822	815.6	809.5	803.2	796.3	788.7	779.8
333.15 K, 5000 kPa	833.5	826.8	820.5	814.3	808	801.1	793.4	784.4
333.15 K, 10000 kPa	838.2	831.4	825	818.9	812.6	805.8	798.1	789.1
333.15 K, 15000 kPa	842.6	835.7	829.4	823.3	817	810.1	802.4	793.4
333.15 K, 20000 kPa	846.6	839.8	833.6	827.4	821.1	814.2	806.6	797.5
333.15 K, 25000 kPa	850.5	843.8	837.6	831.4	825	818.2	810.5	801.4
333.15 K, 30000 kPa	854.3	847.6	841.4	835.2	828.8	821.9	814.1	805
333.15 K, 35000 kPa	857.9	851.3	845	838.9	832.5	825.6	817.8	808.6
333.15 K, 40000 kPa	861.4	854.8	848.6	842.4	836	829.1	821.2	812
333.15 K, 45000 kPa	864.8	858.2	852	845.8	839.4	832.4	824.6	815.4
333.15 K, 50000 kPa	868.1	861.5	855.2	849	842.7	835.6	827.8	818.6
333.15 K, 55000 kPa	871.4	864.6	858.4	852.2	845.8	838.8	831	821.9
333.15 K, 60000 kPa	874.5	867.8	861.4	855.3	848.9	841.8	834	824.8
333.15 K, 65000 kPa	877.5	870.7	864.5	858.3	851.9	844.8	836.9	827.7
343.15 K, 100 kPa	819.4	812.2	805.5	799.4	793.3	786.5	779.1	770.7
343.15 K, 5000 kPa	824.5	817.3	810.8	804.6	798.4	791.7	784.2	775.8
343.15 K, 10000 kPa	829.3	822.3	815.8	809.6	803.4	796.6	789.1	780.6
343.15 K, 15000 kPa	833.9	826.9	820.4	814.3	808.1	801.3	793.8	785.1
343.15 K, 20000 kPa	838.1	831.3	824.9	818.7	812.4	805.7	798.1	789.5
343.15 K, 25000 kPa	842.3	835.5	829.1	822.9	816.6	809.8	802.2	793.5
343.15 K, 30000 kPa	846.2	839.5	833.1	827	820.7	813.9	806.2	797.4
343.15 K, 35000 kPa	850.1	843.2	837	830.7	824.5	817.6	809.9	801.1
343.15 K, 40000 kPa	853.7	847	840.6	834.4	828.2	821.4	813.5	804.6
343.15 K, 45000 kPa	857.4	850.4	844.3	838	831.8	824.9	817.2	808.2
343.15 K, 50000 kPa	860.8	853.9	847.7	841.4	835.2	828.2	820.5	811.4
343.15 K, 55000 kPa	864.2	857.1	851	844.8	838.5	831.5	823.7	814.7
343.15 K, 60000 kPa	867.4	860.5	854.3	848	841.8	834.8	826.9	817.7
343.15 K, 65000 kPa	870.3	863.6	857.4	851.1	844.9	837.8	829.9	820.7
353.15 K, 100 kPa	809.7	802.7	795.9	789.9	783.8	777	769	760.6
353.15 K, 5000 kPa	815.1	808	801.4	795.3	789.2	782.3	774.4	766.1
353.15 K, 10000 kPa	820.3	813.3	806.7	800.6	794.6	787.7	779.6	771.2
353.15 K, 15000 kPa	825.3	818.2	811.6	805.5	799.5	792.6	784.6	776.2
353.15 K, 20000 kPa	829.9	822.9	816.3	810.2	804.2	797.3	789.1	780.7
353.15 K, 25000 kPa	834	827.3	820.8	814.7	808.7	801.7	793.5	784.9
353.15 K, 30000 kPa	838.2	831.6	825	818.9	813	805.9	797.6	789
353.15 K, 35000 kPa	842.2	835.6	829.1	822.9	817	809.9	801.6	792.9
353.15 K, 40000 kPa	846.1	839.4	833	826.8	820.8	813.7	805.4	796.6
353.15 K, 45000 kPa	849.8	843.2	836.7	830.6	824.6	817.4	809.1	800.3
353.15 K, 50000 kPa	853.3	846.8	840.3	834.2	828.1	820.9	812.5	803.7
353.15 K, 55000 kPa	856.7	850.2	843.8	837.6	831.6	824.4	815.8	807
353.15 K, 60000 kPa	860.1	853.6	847.2	840.9	835	827.7	818.9	810.3
353.15 K, 65000 kPa	863.5	856.8	850.4	844.2	838.3	830.9	822.5	813.6

Reference: the NIST ThermoML archive (doi:10.1016/j.fluid.2006.05.032)
